Converted amounts (≈) assume the structure as drawn.
Tests used:
Type in all cases: functional, organism-based
Zymoseptoria tritici [1] = experiment: Antifungal activity against azoxystrobin-sensitive Zymoseptoria tritici IPO323 carrying cytochrome-b G143 allele assessed as fungal growth inhibition after 6 days at 20 degC by microplate without alamar blue assay; conditions: IPO323, 144 h
Zymoseptoria tritici [2] = experiment: Antifungal activity against azoxystrobin-sensitive Zymoseptoria tritici T0278 carrying cytochrome-b G143 allele assessed as fungal growth inhibition after 6 days at 20 degC by microplate without alamar blue assay; conditions: T0278, 144 h
Zymoseptoria tritici [3] = experiment: Antifungal activity against azoxystrobin-resistant Zymoseptoria tritici T0293 carrying cytochrome-b A143 allele assessed as fungal growth inhibition after 6 days at 20 degC by microplate without alamar blue assay; conditions: T0293, 144 h
Zymoseptoria tritici [4] = experiment: Antifungal activity against azoxystrobin-sensitive Zymoseptoria tritici T0148 carrying cytochrome-b G143 allele assessed as fungal colony perpendicular diameter changes after 10 days at 18 degC by spotting on PDA medium assay; conditions: T0148, 240 h
Zymoseptoria tritici [5] = experiment: Antifungal activity against azoxystrobin-sensitive Zymoseptoria tritici T0209 carrying cytochrome-b G143 allele assessed as fungal colony perpendicular diameter changes after 10 days at 18 degC by spotting on PDA medium assay; conditions: T0209, 240 h
Zymoseptoria tritici [6] = experiment: Antifungal activity against azoxystrobin-sensitive Zymoseptoria tritici T0464 carrying cytochrome-b G143 allele assessed as fungal growth inhibition after 6 days at 20 degC by microplate without alamar blue assay; conditions: T0464, 144 h
Zymoseptoria tritici [7] = experiment: Antifungal activity against azoxystrobin-sensitive Zymoseptoria tritici T0473 carrying cytochrome-b G143 allele assessed as inhibition of spore germination after 2 days at 18 degC by spotting on PDA medium assay; conditions: T0473, 48 h
Zymoseptoria tritici [8] = experiment: Antifungal activity against azoxystrobin-sensitive Zymoseptoria tritici T0365 carrying cytochrome-b G143 allele assessed as inhibition of spore germination after 2 days at 18 degC by spotting on PDA medium assay; conditions: T0365, 48 h
Zymoseptoria tritici [9] = experiment: Antifungal activity against azoxystrobin-sensitive Zymoseptoria tritici T0214 carrying cytochrome-b G143 allele assessed as fungal colony perpendicular diameter changes after 10 days at 18 degC by spotting on PDA medium assay; conditions: T0214, 240 h
Zymoseptoria tritici [10] = experiment: Antifungal activity against azoxystrobin-resistant Zymoseptoria tritici T0254 carrying cytochrome-b A143 allele assessed as inhibition of spore germination after 2 days at 18 degC by spotting on PDA medium assay; conditions: T0254, 48 h
Zymoseptoria tritici [11] = experiment: Antifungal activity against azoxystrobin-sensitive Zymoseptoria tritici T0384 carrying cytochrome-b G143 allele assessed as fungal growth inhibition after 6 days at 20 degC by microplate without alamar blue assay; conditions: T0384, 144 h
Zymoseptoria tritici [12] = experiment: Antifungal activity against azoxystrobin-resistant Zymoseptoria tritici T0242 carrying cytochrome-b A143 allele assessed as fungal colony perpendicular diameter changes after 10 days at 18 degC by spotting on PDA medium assay; conditions: T0242, 240 h

For `CO/C=C(/C(=O)OC)c1ccccc1Oc1cc(Oc2ccccc2C#N)ncn1` [AZOXYSTROBIN], the IC50 (Zymoseptoria tritici [1]) was 0.01 µg/mL (≈ 0.0248 µM), the IC50 (Zymoseptoria tritici [2]) was 0.04 µg/mL (≈ 0.0992 µM) and the IC50 (Zymoseptoria tritici [3]) was over 100 µg/mL. For the same compound, the IC50 (Zymoseptoria tritici [4]) was 0.06 µg/mL (≈ 0.149 µM), the IC50 (Zymoseptoria tritici [5]) was 0.14 µg/mL (≈ 0.347 µM) and the IC50 (Zymoseptoria tritici [6]) was under 0.01 µg/mL. For the same compound, the IC50 (Zymoseptoria tritici [7]) was 0.05 µg/mL (≈ 0.124 µM), the IC50 (Zymoseptoria tritici [8]) was 0.06 µg/mL (≈ 0.149 µM) and the IC50 (Zymoseptoria tritici [9]) was 0.09 µg/mL (≈ 0.223 µM). The IC50 (Zymoseptoria tritici [10]) was 7.17 µg/mL (≈ 17.8 µM), the IC50 (Zymoseptoria tritici [11]) was 0.06 µg/mL (≈ 0.149 µM) and the IC50 (Zymoseptoria tritici [12]) was 12 µg/mL (≈ 29.7 µM).

— ChEMBL document CHEMBL3046287, “Azoxystrobin resistance of French Mycosphaerella graminicola strains assessed by four in vitro bioassays and by screening of G143A substitution” (Crop Prot, 2010)
